Data reported in PubChem BioAssay (NCI).
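Abbreviation: GI50, concentration required for 50% inhibition of growth. TGI is the concentration that stops growth completely.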

Columns and labels:
Test in all cases: inhibition of tumour cell growth, NCI panel, 384-well format
[1] = tested on: HCT-116 colon
[2] = tested on: MDA-MB-435 melanoma
[3] = tested on: A549 NSCLC
[4] = tested on: HT29 colon
[5] = tested on: PC-3 prostate
[6] = tested on: NCI/ADR-RES ovarian
[7] = tested on: DU-145 prostate
[8] = tested on: SK-MEL-5 melanoma
[9] = tested on: K-562 leukemia
[10] = tested on: MCF7 breast
[11] = tested on: HOP-62 NSCLC
[12] = tested on: ACHN renal
[13] = tested on: MDA-MB-468 breast
[14] = tested on: U251 glioblastoma
[15] = tested on: OVCAR-3 ovarian
[16] = tested on: HOP-92 NSCLC
[17] = tested on: COLO 205 colon
[18] = tested on: UACC-257 melanoma
[19] = tested on: HCC-2998 colon
[20] = tested on: EKVX NSCLC
[21] = tested on: SK-MEL-28 melanoma
[22] = tested on: HCT-15 colon
[23] = tested on: SN12C renal
[24] = tested on: SNB-19 CNS
[25] = tested on: TK-10 renal
[26] = tested on: UACC-62 melanoma
[27] = tested on: HS 578T breast
[28] = tested on: HL-60(TB) leukemia
[29] = tested on: RPMI-8226 leukemia
[30] = tested on: A498 renal
[31] = tested on: NCI-H522 lung
[32] = tested on: MALME-3M melanoma
[33] = tested on: SW-620 colon
[34] = tested on: NCI-H322M lung
[35] = tested on: M14 melanoma
[36] = tested on: CCRF-CEM leukemia
[37] = tested on: SF-268 CNS
[38] = tested on: SNB-75 CNS
[39] = tested on: IGROV1 ovarian
[40] = tested on: NCI-H226 lung
[41] = tested on: OVCAR-4 ovarian
[42] = tested on: SF-539 CNS
[43] = tested on: LOX IMVI melanoma
[44] = tested on: MOLT-4 leukemia
[45] = tested on: 786-0 renal
[46] = tested on: SK-OV-3 ovarian
[47] = tested on: SK-MEL-2 melanoma
[48] = tested on: RXF 393 renal
[49] = tested on: CAKI-1 renal
[50] = tested on: BT-549 breast
[51] = tested on: OVCAR-8 ovarian
[52] = tested on: NCI-H460 NSCLC
[53] = tested on: NCI-H23 lung
[54] = tested on: SF-295 CNS
[55] = tested on: KM12 colon

Work on CCOC(=O)CCC(NC(=O)C(Cc1ccc(N(CCCl)CCCl)cc1)NC=O)C(=O)OCC (stereo not given) yielded a GI50 [1] of 4130 nM, a TGI [1] of 24300 nM and a GI50 [2] of 3190 nM. For the same compound, the TGI [2] was 8840 nM, the GI50 [3] was 5770 nM and the TGI [3] was 27500 nM. For the same compound, the GI50 [4] was 3710 nM, the TGI [4] was 16600 nM and the GI50 [5] was 5250 nM. The TGI [5] was 19100 nM, the GI50 [6] was 8380 nM and the TGI [6] was 21200 nM. It also gave a GI50 [7] of 2420 nM, a TGI [7] of 5420 nM and a GI50 [8] of 1220 nM. The TGI [8] was 2590 nM, the GI50 [9] was 13100 nM and the TGI [9] was 27800 nM. The GI50 [10] was 4060 nM, the TGI [10] was 25900 nM and the GI50 [11] was 1720 nM. It also gave a TGI [11] of 4130 nM, a GI50 [12] of 446 nM and a TGI [12] of 1880 nM. It also gave a GI50 [13] of 339 nM, a TGI [13] of 763 nM and a GI50 [14] of 1820 nM. It also gave a TGI [14] of 6040 nM, a GI50 [15] of 1140 nM and a TGI [15] of 2710 nM. For the same compound, the GI50 [16] was 1020 nM, the TGI [16] was 3490 nM and the GI50 [17] was 602 nM. The TGI [17] was 2380 nM, the GI50 [18] was 1970 nM and the TGI [18] was 4650 nM. It also gave a GI50 [19] of 712 nM, a TGI [19] of 13900 nM and a GI50 [20] of 18900 nM. For the same compound, the TGI [20] was 41600 nM, the GI50 [21] was 1480 nM and the TGI [21] was 3340 nM. The GI50 [22] was 4540 nM, the TGI [22] was 16800 nM and the GI50 [23] was 604 nM. For the same compound, the TGI [23] was 2610 nM, the GI50 [24] was 3810 nM and the TGI [24] was 26100 nM. For the same compound, the GI50 [25] was 11400 nM, the TGI [25] was 29200 nM and the GI50 [26] was 758 nM. For the same compound, the TGI [26] was 2270 nM, the GI50 [27] was 2580 nM and the TGI [27] was 14300 nM. It also gave a GI50 [28] of 33.5 nM, a TGI [28] of 138 nM and a GI50 [29] of 355 nM. The TGI [29] was 899 nM, the GI50 [30] was 5470 nM and the TGI [30] was 26600 nM. For the same compound, the GI50 [31] was 729 nM, the TGI [31] was 2110 nM and the GI50 [32] was 1030 nM. For the same compound, the TGI [32] was 2220 nM, the GI50 [33] was 2860 nM and the TGI [33] was 20600 nM. The GI50 [34] was 13800 nM, the TGI [34] was 30100 nM and the GI50 [35] was 449 nM. The TGI [35] was 1400 nM, the GI50 [36] was 131 nM and the TGI [36] was 281 nM. For the same compound, the GI50 [37] was 737 nM, the TGI [37] was 2280 nM and the GI50 [38] was 2350 nM. The TGI [38] was 5590 nM, the GI50 [39] was 1370 nM and the TGI [39] was 5370 nM. It also gave a GI50 [40] of 1710 nM, a TGI [40] of 10900 nM and a GI50 [41] of 2600 nM. The TGI [41] was 5830 nM, the GI50 [42] was 837 nM and the TGI [42] was 2160 nM. For the same compound, the GI50 [43] was 2690 nM, the TGI [43] was 13200 nM and the GI50 [44] was 32.2 nM. The TGI [44] was 113 nM, the GI50 [45] was 1340 nM and the TGI [45] was 2910 nM. It also gave a GI50 [46] of 3270 nM, a TGI [46] of 12400 nM and a GI50 [47] of 640 nM. It also gave a TGI [47] of 1850 nM, a GI50 [48] of 1760 nM and a TGI [48] of 3190 nM. It also gave a GI50 [49] of 463 nM, a TGI [49] of 2140 nM and a GI50 [50] of 12100 nM. For the same compound, the TGI [50] was 27500 nM, the GI50 [51] was 3240 nM and the TGI [51] was 17000 nM. It also gave a GI50 [52] of 566 nM, a TGI [52] of 2910 nM and a GI50 [53] of 1120 nM. It also gave a TGI [53] of 2990 nM, a GI50 [54] of 2120 nM and a TGI [54] of 4490 nM. The GI50 [55] was 15000 nM and the TGI [55] was 36300 nM.
